# Results from patent EP2664619B1, “Purine derivatives as tools for screening anti-Alzheimer compounds” (Manros Therapeutics, priority 2012, dated 2013).
# Assays:
# N2a-APP695 cells = assay: MTS cell viability assay in the same wells as the ELISA; details: MTS assay, N2a-APP695 cells; for Toxicity: class symbol; for Toxicity (concentration in brackets): concentration above which toxic
# Procedure: To measure cell viability, the MTS assay (CellTiter 96® AQueous One Solution Cell Proliferation Assay, Promega) was used in the same wells as the capture ELISA assay. 20µl of MTS reagent (3-(4,5-dimethylthiazol-2-yl)-5-(3-carboxymethoxyphenyl)-2-(4-sulfophenyl)-2H-tetrazolium) was added in each well containing 100µl of media and incubation was then proceeded for 3 hours (37°C, 5% CO2 and 95% humidity). Measurements were made on OD 490Δ630 nm (excitation and emission wavelengths) using a microELISA reader (BioTek Instrument, El 800, Gen 5 software).
# Aβ42 production = assay: Sandwich ELISA measurement of Aβ42 levels in supernatant of treated N2a-APP695 cells; assay type: cell-based, Mouse; details: N2a-APP695 cells; for EC50: Mus musculus, 18h incubation, ELISA assay, read-out: EC50 (µM) at inducing Aβ42 production
# Procedure: Mouse neuroblastoma cells (N2a cells) or N2a-APP695 cells (N2a cell line stably transfected with APP695, an amyloid precursor protein) were cultured in an essential medium composed of Dulbecco's minimal essential medium (DMEM) and of OptiMEM® (1:1, v/v) (Gibco®) containing 0.2 mg/mL Geniticin (Geneticin® Selective Antibiotic, Gibco®) and 5 % fetal bovine serum (FBS, Gibco®, EU approved origin) in a humidified, 5% CO2 incubator at 37°C. Routinely, cells were split without use of Trypsin every 4/5 days. They were first rinsed with PBS (Gibco) and detached from the plate bottom using 4 mL Versene (Gibco) at room temperature for 3-4 min. 8 mL of fresh medium were added to the cell suspension, and the mix was centrifuged for 3 min at 1,000 rpm. The cell pellet was resuspended in fresh medium before seeding (1/10 dilution) in new flasks.
# The N2a-APP695 cells were seeded at 10.000 cells/well in a 96 well plate with modified media (0.5% FBS) and incubated overnight. Cells were treated with fresh media comprising different compounds according to the invention (equal quantity of DMSO sold by Sigma®). They were then incubated for 18h in a humidified, 5% CO2 incubator.
# Purines according to the invention were added at various concentrations to N2a-APP695.
# The plate was finally centrifuged to remove cell fragments before collecting supernatant samples for amyloids levels determination.
# Then, Aβ38, Aβ40 and Aβ42 levels were measured in a sandwich ELISA (Enzyme-Linked ImmunoSorbent Assay) using a combination of monoclonal antibody 6E10 (mAb 6E10) (sold by Covance® under the reference SIG-39320) and biotinylated polyclonal Aβ38, Aβ40 or Aβ42 antibodies (provided by Dr. P.D. Mehta, IBR, Staten Island, USA).
# A solution of 100 µl mAb 6E10 diluted in carbonate-bicarbonate buffer, pH 9.6, was coated in the wells of microtiter plates (Maxisorp™ sold by Nunc®) and incubated at 4°C overnight. The plates were then washed with PBST (PBS tablets sold by Gibco®) containing 0.05% Tween-20 (Sigma®), and blocked for 1 h with 1% BSA (Sigma®) in PBST (PBS tablets sold by Gibco®) containing 0.05 Tween-20 (Sigma®) to avoid nonspecific binding.
# Following a washing step, samples were added and incubated for 2 hours at room temperature (RT) and then at 4°C overnight. Plates were then washed before incubation with biotinylated polyclonal antibody diluted in PBST (PBS tablets sold by Gibco®) containing 0.05 Tween-20 (Sigma®) + 0.5% BSA at room temperature for 75 minutes.
# After a washing step, streptavidin-horseradish peroxidase conjugate (Streptavidin poly-HRP, Thermo Scientific Pierce®), diluted in PBS + 1% BSA, was added and incubation was carried out for 45 min at room temperature. After washing, 100 µl of o-phenylenediamine dihydrochloride (OPD tablets, Invitrogen®) diluted in citrate buffer pH 5.0 were added. The reaction was stopped after 15 min with the addition of 100 µl 1 N sulfuric acid.
# A range of known concentrations of Aβ38, Aβ40 and Aβ42, ranging from 0.01 to 10 ng/mL for Aβ38 and Aβ42, and ranging from 0.001 to 10 ng/mL for Aβ40, were use as a reference scale to determine the concentrations of Aβ38, Aβ40 and Aβ42 obtained.
# The optical density was finally measured at 490 nm in a microELISA reader (sold by BioTek Instrument, reference E1 800, Gen 5 software).
# The EC50 of the molecules tested were thus calculated.
EC50 (Aβ42 production) [µM],fold (printed in the EC50 cell) (Aβ42 production; Aβ42 production) [fold],SMILES,Toxicity (N2a-APP695 cells),Toxicity (concentration in brackets) (N2a-APP695 cells) [µM]
11,–,"CN(Cc1ccccc1)c1nc(N)nc2c1ncn2C1CCCC1 [Aftin-2, N6-Benzyl-9-cyclopentyl-N6-methyl-purine-2,6-diamine]","- (""-"" means that the tested compound is non toxic with a concentration higher than 100 µM)",–
13,–,CC[C@H](CO)Nc1nc(OCc2ccccc2)c2ncn(C(C)C)c2n1 [Aftin-3],"- (""-"" means that the tested compound is non toxic with a concentration higher than 100 µM)",–
0.7,–,CC[C@H](CO)Nc1nc(N(C)Cc2ccccc2)c2ncn(Cc3ccccc3)c2n1 [Compound 17],+,> 12
1.3,–,CC[C@H](CO)Nc1nc(N(CC)Cc2ccccc2)c2ncn(Cc3ccccc3)c2n1 [Compound 18],+,> 12
1.35,–,CCCN(Cc1ccccc1)c1nc(N[C@H](CC)CO)nc2c1ncn2C(C)C [Compound 20],+,> 12
0.45,–,CC[C@H](CO)Nc1nc(N(C)Cc2ccc(-c3ccccc3)cc2)c2ncn(C(C)C)c2n1 [Compound 21],+,–
2.5,–,"CC[C@H](CO)Nc1nc(N(Cc2ccccc2)C(C)C)c2ncn(C(C)C)c2n1 [Compound 23, (2R)-2-[[6-[benzyl(isopropyl)amino]-9-isopropylpurin-2-yl]amino]butan-1-ol]",+,> 12
3.5,–,CC[C@H](CO)Nc1nc(N2CCc3ccccc3C2)c2ncn(C(C)C)c2n1 [Compound 24],+,> 31
17,–,CC[C@@H](CO)Nc1nc(N(C)c2ccccc2)c2ncn(C(C)C)c2n1 [Compound 26],"- (""-"" means that the tested compound is non toxic with a concentration higher than 100 µM)",–
> 150,–,CC(C)n1cnc2c(N(C)c3ccccc3)nc(N(CCO)CCO)nc21 [Compound 39],–,–
> 150,–,CC(C)n1cnc2c(N(C)c3ccccc3)nc(NCCO)nc21 [Compound 40],"- (""-"" means that the tested compound is non toxic with a concentration higher than 100 µM)",–
4.5,–,"CC[C@H](CO)Nc1nc(N(C)c2ccc(OC)cc2)c2ncn(C(C)C)c2n1 [Compound 44, (2R)-2-[[9-isopropyl-6-[(4-methoxyphenyl)-methyl-amino]purin-2-yl]amino]butan-1-ol]",+,> 21
> 10,–,"CC[C@H](CO)Nc1nc(SCc2ccccc2)c2ncn(C(C)C)c2n1 [Compound 47, (2R)-2-[(6-benzylsulfanyl-9-isopropyl-purin-2-yl)amino]butan-1-ol]",+,–

# The remaining lines, values behind:
SMILES,EC50 (Aβ42 production) [µM],fold (printed in the EC50 cell) (Aβ42 production; Aβ42 production) [fold],Toxicity (N2a-APP695 cells),Toxicity (concentration in brackets) (N2a-APP695 cells) [µM]
"CC(C)n1cnc2c(N(C)Cc3ccccc3)nc(N)nc21 [Aftin-1, N6-benzyl-9-isopropyl-N6-methyl-purine-2,6-diamine]",20,–,+,–
"CC[C@H](CO)Nc1nc(N(C)Cc2ccccc2)c2ncn(C(C)C)c2n1 [Aftin-4, N6-methyl-roscovitine]",10,–,+,> 31
"CN(Cc1ccccc1)c1nc(N)nc2[nH]cnc12 [Compound 1, reference compound]",100,–,"- (""-"" means that the tested compound is non toxic with a concentration higher than 100 µM)",–
"CC[C@H](CO)Nc1nc(NCc2ccccc2)c2ncn(C(C)C)c2n1 [Compound 2, reference compound]",–,–,"- (""-"" means that the tested compound is non toxic with a concentration higher than 100 µM)",–
"CC(C)n1cnc2c(N(C)Cc3ccccc3)ncnc21 [Compound 9, N-benzyl-9-isopropyl-N-methyl-purin-6-amine]",12,–,"- (""-"" means that the tested compound is non toxic with a concentration higher than 100 µM)",–
CN(Cc1ccccc1)c1ncnc2c1ncn2C1CCCC1 [Compound 12],12,–,+,> 31
CC[C@H](CO)Nc1nc(N(CC)Cc2ccccc2)c2ncn(C(C)C)c2n1 [Compound 13],3.8,–,+,> 31
CC[C@H](CO)Nc1nc(N(C)Cc2ccccc2)c2ncn(C3CCCC3)c2n1 [Compound 14],2.7,–,+,> 20
CCN(Cc1ccccc1)c1nc(N[C@@H](CO)C(C)C)nc2c1ncn2C1CCCC1 [Compound 15],0.5,–,+,–
CC[C@H](CO)Nc1nc(N(C)Cc2ccc(-c3ccccn3)cc2)c2ncn(C(C)C)c2n1 [Compound 16],3.2,–,+,> 31
CC[C@H](CO)Nc1nc(N2CCc3ccccc32)c2ncn(C(C)C)c2n1 [Compound 19],8,–,+,> 31
CCN(CC)CCNc1nc(N(CC)Cc2ccccc2)c2ncn(C3CCCC3)c2n1 [Compound 22],0.8,–,+,> 12
CC[C@@H](CO)Nc1nc(N(C)Cc2ccc(-c3ccccn3)cc2)c2ncn(C(C)C)c2n1 [Compound 28],2.8,–,+,> 12
CC(C)n1cnc2c(N(C)Cc3ccc(-c4ccccn4)cc3)nc(NC[C@H](O)CO)nc21 [Compound 29],10,–,"- (""-"" means that the tested compound is non toxic with a concentration higher than 100 µM)",–
CC[C@H](CO)Nc1nc(N(C)Cc2ccc(C(=O)NCCOCCOCCOCCOCCOCCN)cc2)c2ncn(C(C)C)c2n1 [Compound 30],> 100,–,"- (""-"" means that the tested compound is non toxic with a concentration higher than 100 µM)",–
CC[C@@H](CO)Nc1nc(OCc2ccccc2)c2ncn(C(C)C)c2n1 [Compound 32],21,–,"- (""-"" means that the tested compound is non toxic with a concentration higher than 100 µM)",–
CC(C)n1cnc2c(N(C)Cc3ccc(F)cc3)nc(NC3CCNCC3)nc21 [Compound 33],10,2,+,> 12
CCC(CO)Nc1nc(N(C)c2ccc(F)cc2)c2ncn(C(C)C)c2n1 (stereo not shown) [Compound 34],30,–,"- (""-"" means that the tested compound is non toxic with a concentration higher than 100 µM)",–
CC[C@H](CO)Nc1nc(N(C)Cc2cccc(OC)c2)c2ncn(C(C)C)c2n1 [Compound 36],105,–,+,> 100
CC[C@@H](CO)Nc1nc(N(C)Cc2ccc(F)cc2)c2ncn(C(C)C)c2n1 [Compound 37],52,–,+,> 12
CC[C@H](CO)Nc1nc(N(C)Cc2ccc(F)cc2)c2ncn(C(C)C)c2n1 [Compound 38],55,–,+,> 12
CC[C@H](CO)Nc1nc(N(CC)c2ccccc2)c2ncn(C(C)C)c2n1 [Compound 42],25,–,+,> 100
"CC(C)n1cnc2c(OCc3ccccc3)nc(OCc3ccccc3)nc21 [Compound 46, 9-Iso-propyl-2,6-dibenzyloxypurine]",3.5,–,+,> 12
